Experimental data: US6355799B1, “Substituted benzene compounds, process for their preparation, and herbicidal and defoliant compositions containing them” (ISK Americas Incorporated, priority 1997, dated 2002)
Read-outs that look alike come from different tables or passages of the source.

How the values were obtained:
Format in all cases: in vivo
[1] = system: redroot pigweed (Amaranthus retroflexus, AMARE); experiment: Pre-emerge test, greenhouse herbicide activity screening; settings: for pest or weed control at 63 g/ha / pest or weed control at 250 g/ha: Amaranthus retroflexus, pre-emergence, 336 h, phytotoxicity rating 0-100 at 14 days after application, read-out: Pre-emerge Herbicidal Activity AMARE; for pest or weed control at 63 g/ha / pest or weed control at 250 g/ha / Pre-emerge Herbicidal Activity AMARE (phytotoxicity rating, scale 0-100): pre-emerge; for pest or weed control at 63 g/ha: rate 63 g ai/ha; for pest or weed control at 250 g/ha: rate 250 g ai/ha; for Pre-emerge Herbicidal Activity AMARE (phytotoxicity rating, scale 0-100): rated 14 days after application, 0 = no damage, 100 = complete death; for Pre-emerge herbicidal activity, phytotoxicity rating AMARE: rating scale 0-100, 14 days after application
Summary of the method: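 Rating: 0–100 visual injury, 14 DAA. Application: acetone, 187 l/ha, 15–1000 g ai/ha, flat-fan track sprayer with nozzle 40–45 cm above soil or canopy. Post-emerge runs used 0.25% v/v surfactant on 2–3 leaf plants.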

[2] = system: ivyleaf morningglory (Ipomoea hederacea, IPOHE); experiment: Post-emerge test, greenhouse herbicide activity screening; settings: Ipomoea, post-emergence, 336 h, read-out: Post-emerge Herbicidal Activity IPOHE; for pest or weed control at 63 g/ha: 63 g ai/ha; for pest or weed control at 250 g/ha: 250 g ai/ha
Summary of the method: (§1)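 Each test used a mechanized track sprayer delivering 187 l/ha of acetone solution at 15–1000 g ai/ha. Post-emerge foliage at 2–3 leaves was treated with added 0.25% v/v non-ionic surfactant and bottom-watered only. Injury was assessed on day 14, where 100 means total kill.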

[3] = system: barnyardgrass (Echinochloa crus-galli, ECHCG); experiment: as above; settings: Echinochloa crus-galli, post-emergence, 336 h, read-out: Post-emerge Herbicidal Activity ECHCG; for pest or weed control at 63 g/ha: 63 g ai/ha; for pest or weed control at 250 g/ha: 250 g ai/ha
Summary of the method: as §1

[4] = post-emerge, phytotoxicity rating 0-100 at 14 days after application
[5] = phytotoxicity rating 0-100 (0 no damage, 100 complete death), 14 days after application

## COc1c(Cl)cc(F)c(-c2nn(C)c(C(F)(F)F)c2Cl)c1NC(=O)C=Cc1ccccc1 [Compound 7-15]
[1]
  pest or weed control at 63 g/ha: 80%
  pest or weed control at 250 g/ha: 100%
[2]; [4]
  pest or weed control at 63 g/ha: 70%
  pest or weed control at 250 g/ha: 70%
[3]; [4]
  pest or weed control at 63 g/ha: 0%
  pest or weed control at 250 g/ha: 10%

## Cc1nn(-c2c(F)cc(Cl)cc2NC(=O)c2ccc3ccccc3c2)c(=O)n1C(F)F [Compound 6-24]
[1]
  pest or weed control at 63 g/ha: 20%
  pest or weed control at 250 g/ha: 100%
[2]; [4]
  pest or weed control at 63 g/ha: 0%
  pest or weed control at 250 g/ha: 60%
[3]; [4]
  pest or weed control at 63 g/ha: 0%
  pest or weed control at 250 g/ha: 0%

## Cn1c(C(F)(F)F)cc(=O)n(-c2c(F)cc(Cl)c(OC(F)F)c2N)c1=O [Compound 1-38, 3-(2-amino-4-chloro-3-difluoromethoxy-6-fluorophenyl)-1-methyl-6-trifluoromethyl-2,4(1H, 3H)-pyrimidinedione]
[1]; 63 g ai/ha
  Pre-emerge Herbicidal Activity AMARE (phytotoxicity rating, scale 0-100): 100
[1]; 250 g ai/ha
  Pre-emerge Herbicidal Activity AMARE (phytotoxicity rating, scale 0-100): 100
[2]; [5]
  pest or weed control at 63 g/ha: 80%
  pest or weed control at 250 g/ha: 100%
[3]; [5]
  pest or weed control at 63 g/ha: 0%
  pest or weed control at 250 g/ha: 80%

## CC(C)Oc1c(Cl)cc(F)c(-n2nnn(CCCF)c2=O)c1N [Compound 5-18, 1-(2-amino-4-chloro-6-fluoro-3-isopropyloxyphenyl)-4-(3fluoropropyl)-1,4-dihydro-5-oxo-5H-tetrazole]
[1]
  pest or weed control at 63 g/ha: 30%
  pest or weed control at 250 g/ha: 0%
[2]; [4]
  pest or weed control at 63 g/ha: 0%
  pest or weed control at 250 g/ha: 0%
[3]; [4]
  pest or weed control at 63 g/ha: 0%
  pest or weed control at 250 g/ha: 0%

## COc1c(Cl)cc(F)c(-c2nn(C)c(C(F)(F)F)c2Cl)c1NC(=O)c1ccc2ccccc2c1 [Compound 7-14]
[1]
  pest or weed control at 63 g/ha: 40%
  pest or weed control at 250 g/ha: 80%
[2]; [4]
  pest or weed control at 250 g/ha: 100%
[3]; [4]
  pest or weed control at 250 g/ha: 10%

## COc1c(Cl)cc(Cl)c(-n2nc(C)n(C(F)F)c2=O)c1NC(=O)c1ccc2ccccc2c1 [Compound 6-17]
[1]
  pest or weed control at 63 g/ha: 90%
  pest or weed control at 250 g/ha: 100%
[2]; [4]
  pest or weed control at 63 g/ha: 50%
  pest or weed control at 250 g/ha: 70%
[3]; [4]
  pest or weed control at 63 g/ha: 0%
  pest or weed control at 250 g/ha: 30%

## COc1c(Cl)cc(F)c(N2C(=O)c3ccccc3C2=O)c1NC(=O)c1ccc2ccccc2c1 [Compound 13-3, N-[4-chloro-6-fluoro-3-methoxy-2-(2-naphthoyl)aminophenyl]phthalimide]
[1]; 63 g ai/ha
  Pre-emerge herbicidal activity, phytotoxicity rating AMARE: 100
[1]; 250 g ai/ha
  Pre-emerge herbicidal activity, phytotoxicity rating AMARE: 100
[2]; [4]
  pest or weed control at 63 g/ha: 75%
  pest or weed control at 250 g/ha: 70%
[3]; [4]
  pest or weed control at 63 g/ha: 0%
  pest or weed control at 250 g/ha: 20%

## Cc1nn(-c2c(N)cc(Cl)cc2F)c(=O)n1C(F)F [Compound 6-22]
[1]
  pest or weed control at 63 g/ha: 30%
  pest or weed control at 250 g/ha: 100%
[2]; [4]
  pest or weed control at 63 g/ha: 20%
  pest or weed control at 250 g/ha: 70%
[3]; [4]
  pest or weed control at 63 g/ha: 0%
  pest or weed control at 250 g/ha: 0%

## COc1c(Cl)cc(F)c(-n2nc(C)n(C(F)F)c2=O)c1NC(=O)c1ccc2ccccc2c1 [Compound 6-15]
[1]
  pest or weed control at 63 g/ha: 100%
  pest or weed control at 250 g/ha: 100%
[2]; [4]
  pest or weed control at 63 g/ha: 100%
  pest or weed control at 250 g/ha: 100%
[3]; [4]
  pest or weed control at 63 g/ha: 40%
  pest or weed control at 250 g/ha: 70%

## CC(C)Oc1c(Cl)cc(F)c(N2C(=O)C3=C(CCCC3)C2=O)c1N [Compound 8-4, N-(2-amino-4-chloro-6-fluoro-3-isopropyloxyphenyl)tetrahydrophthalimide]
[1]
  pest or weed control at 63 g/ha: 60%
  pest or weed control at 250 g/ha: 100%
[2]; [4]
  pest or weed control at 63 g/ha: 0%
  pest or weed control at 250 g/ha: 20%
[3]; [4]
  pest or weed control at 63 g/ha: 0%
  pest or weed control at 250 g/ha: 0%

## Cc1nn(-c2c(Cl)cc(Cl)c(N)c2N)c(=O)n1C(F)F [Compound 6-20]
[1]
  pest or weed control at 63 g/ha: 10%
  pest or weed control at 250 g/ha: 0%
[2]; [4]
  pest or weed control at 63 g/ha: 0%
  pest or weed control at 250 g/ha: 40%
[3]; [4]
  pest or weed control at 63 g/ha: 0%
  pest or weed control at 250 g/ha: 0%
